The source of these data is patent US10590116B2, “3-indolyl furanoids as inhibitors of matrix metalloproteinase-9 for prevention of gastric ulcer and other inflammatory diseases” (Council of Scientific & Industrial Research, priority 2017, dated 2020).

Data set [1] concerns lipid peroxide content (TBARS). The data set can be described thus: Measurement of lipid peroxidation (TBARS) in gastric tissue homogenate. The data set is classed as in vivo. To be noted: ulcerated mice. As to the method:
The fundic stomach homogenate was used for measurement of lipid peroxide content as thiobarbituric acid reactive species (TBARS).
The cytosolic fraction from the gastric tissue homogenate was used for measurement of lipid peroxide content as thiobarbituric acid reactive species (TBARS). Briefly, 1 mL of the cytosolic fraction was allowed to react with 2 mL of TCA-TBA-HCl (15% TCA, 0.375% TBA, 0.25 N HCl) reagent, heated in a boiling water-bath for 15 min, cooled and centrifuged. The absorbance of the supernatant was measured for nano moles of TBARS at 535 nm (ε=1.5×10^5/M/cm).

Data set [2] has as its system gastric epithelium and submucosa. Nature of the data set: Haematoxylin-eosin staining of gastric tissue sections. In kind it is in vivo. The following applies: 50 mg/kg body weight, indomethacin ulcerated mice. An excerpt:
To understand the fine information about the physical condition (the level of damage and/or intactness) of cells tissues under observation, different tissue samples were fixed in 10% formalin and embedded in paraffin. Tissue sections were deparaffinized with xylene and rehydrated with descending alcohol series. The sections were cut using microtome, and stained with hematoxylin and eosin, or subjected to Terminal deoxynucleotidyl transferase-mediated dUTP Nick End Labeling (TUNEL) assay by using a in situ apoptosis detection kit. Fixation, permeabilization, and staining were carried out in exact parallel to ensure comparative significance among normal, ulcerated and compound 5 treated groups. […] Images at 10× and 40× magnification were captured using Camedia software (E-20P 5.0 Megapixel) and processed under Adobe Photoshop version 7.0 (FIG. 1B).
Tissue sections were stained with hematoxylin and eosin stain. Fixation, permeabilization, and staining were carried out in parallel in normal, ulcerated and compound 5 treated groups to ensure comparative significance among different treatment. TUNEL assay is used for detection and quantification of apoptosis in gastric tissues, based on labelling of DNA strand breaks. Terminal deoxynucleotidyl transferase-mediated dUTP Nick End Labeling (TUNEL) assay was performed by using an in situ apoptosis detection kit. […]

A short description of data set [3]: Pharmacokinetic profiling in rat. The data set is classed as in vivo, Sprague Dawley rats. To be noted: single dose 250 mg/kg oral gavage, male rats, plasma. As to the method:
Male sprague dawley rats (n=6) received a single dose of 250 mg/kg body weight compound 5 by oral gavage. Compound 5 levels in plasma were determined by HPLC. Values represent mean plasma levels.
Column chromatography was carried out using silica gel 100-200 mesh. Analytical thin-layer chromatography (TLC) was performed with silica gel 60 F254 aluminium sheets. ^1H NMR spectra were recorded on a Bruker DPX 300 MHz or Bruker DRX 600 MHz NMR instrument at ambient temperature in CDCl3, CD3OD or DMSO-d6. ^13C NMR spectra were recorded at 75 MHz or 150 MHz at ambient temperature. The chemical shifts were recorded in parts per million (ppm) with TMS as internal reference. All ^13C NMR spectra were recorded with complete proton decoupling. Mass spectral data refer to EIMS or ESIMS and are recorded in m/z unit. DI-EIMS were recorded on a GC-MS Shimadzu-QP5050A and ESIMS were done on a Waters® Micromass® Q-TOF Mass Spectrometer. Melting points are recorded on a SPAC-N SERVICE (India) melting point apparatus (Laboratory device) in open capillaries and are uncorrected. Elemental analyses were performed by Perkin-Elmer CHN/O analyzer model 2400, series II. HPLC analysis of plasma samples were performed on a Shimadzu Model SPD-M10Avp equipped with LC-10ATvp HPLC pump, Hamamatsu Deuterium Lamp type L6585 photodiode array detector. Chromatography was achieved using a Phenomenex Luna 5 μm C18 (2) 100 Å LC Column (150×4.6 mm I. D.) with Guard Cartridges C18 (4×3.0 mm). The mobile phase consisted of 15% water in acetonitrile, and solutes were eluted using a flow rate 1.0 mL/min. The column was re-equilibrated at initial conditions for 5 min before the next analysis. Analytical HPLC conditions were as follows: column, Pheomenex C18 (250 mm×4.6 mm, particle size 5 μm) with solvent combination of 0.5-1.0% TFA in water:acetonitrile in various ratios at a flow rate of 0.5-1.0 mL/min, detection at 254 nm. Purity of tested compounds was established by analytical reverse phase HPLC, confirming a purity of at least 95%. Unless otherwise stated, reagents were procured from commercial sources and were used without further purification.
In order to assess the time course of action and disposition of compound 5 in vivo, pharmacokinetic studies in Sprague Dawley rats were conducted. The curve was linear in the range investigated and the extraction efficiency was greater than 70%.

In data set [4] the test system is indomethacin-induced acute gastric ulcers. Nature of the data set: Protection studies of gastric ulceration in vivo (indomethacin-induced acute gastric ulcer, ulcer index). The arrangement: species or system Balb/c mice. The following applies: for inhibition in ulcer index: 4 h. As to the method: Animal experiments were carried out using Balb/c mice (20-25 g). Animals were anesthetized with ketamine (12 mg/kg b.w.) prior to cervical dislocation. Control and experimental animals were fasted for 6 hr with free access to water.
Balb/c mice (20-25 g) bred in-house with free access to food and water was used for all experiments. Experiments were designed to minimize animal suffering and to use the minimum number associated with valid statistical evaluation. Animals were anesthetized with ketamine (12 mg/kg b.w.) followed by cervical dislocation. Animal experiments were carried out following the guidelines of animal ethics committee of the institute. Control and experimental animals were fasted for 6 h with free access to water.
Before ulcer induction, animals of both control and experimental groups were kept separately in standard controlled conditions. Acute gastric ulcers were induced by oral administration of indomethacin at a dose of 80 mg/kg b.w. The control group received the vehicle only (olive oil), whereas the experimental group received indomethacin for gastric ulceration. After 4 h, the animals were sacrificed and gastric lesions in the fundic stomach were scored and expressed as obtained by counting the number of red bands/dots as follows: 0=no pathology; 1=a small pinhead ulcer spot; and 2-5=a band like lesion of 2-5 mm length. Total score become ˜50 when ulcer is severe. The sum of the total scores as divided by the number of animals was expressed as the mean ulcer index. Formulations were administered orally 30 min prior to indomethacin treatment to check the gastroprotective effect. Among all the chemical compositions of 3-indolyl furanoids synthesized (table 1), compounds 1, 2, 5, 8, 9 and 12 were tested for prevention studies against gastric inflammation in vivo.

“Also recorded” adds a separate entry of the source.

A word on the Cmax: it is the maximum level reached in the sampled fluid or tissue. What is called Tmax is the time from dosing to the highest level. By half-life is commonly meant how long it takes for the measured level to halve. The term inhibition in vivo denotes the relative decrease from the control value, in per cent. High values mean a response far below the control, low ones a response near the control. Consider `COc1cccc2[nH]cc(-c3cc(-c4ccccc4)oc3-c3ccccc3)c12` [compound 5, 4-methoxy-3-(2,5-diphenylfuran-3-yl)-1H-indole], for which the Lipid peroxidation is 0.47±0.15 nmol TBARS/mg tissue in data set [1] and 0.47 ± 0.15 nmol TBARS/mg tissue in data set [1] (listed as Compound 5). In addition, the “gastric injury, haematoxylin-eosin staining” value in data set [2] was “minimum injury and intact epithelial layer; also recorded: prevents indomethacin induced gastric injury”. The Cmax in data set [3] (Sprague-Dawley, rat) amounted to 104 µg/mL. For the same compound, in data set [3] (Sprague-Dawley, rat), the Tmax is around 6 h. Moreover, the half-life in data set [3] (Sprague-Dawley, rat) was 7 h. The “area under the curve” value in data set [3] came to 1273.8 µg·h/mL. For the same compound, the entries for the “inhibition in ulcer index” value in data set [4] (10 mg/kg bw oral prior to indomethacin 80 mg/kg) and in data set [4] (25 mg/kg bw oral prior to indomethacin 80 mg/kg) were 40% and 80%, respectively. Further, testing at 50 mg/kg in data set [4] (Mus musculus, 50 mg/kg body weight oral in olive oil, indomethacin 80 mg/kg, scored after 4 h, Balb/c mice) gave an inhibition in vivo of 95%.
